Measured values: PMC8175309, “Translational CNS Steady-State Drug Disposition Model in Rats, Monkeys, and Humans for Quantitative Prediction of Brain-to-Plasma and Cerebrospinal Fluid-to-Plasma Unbound Concentration Ratios” (The AAPS Journal, 2021)
Where two headings read alike, the source gives them in different places.

Legend:
in vivo [1] = conditions: for Kp uu: rat, in vivo
Experimental: The CSF samples collected from cisterna magna in rats were stored at –80°C until analysis by liquid chromatography-tandem mass spectrometry (LC-MS/MS). Before performing the LC-MS/MS analysis, these samples were thawed on ice and mixed with three volumes of acetonitrile. The acetonitrile mixtures were vortexed and centrifuged, and the supernatant was collected. After dilution with mobile phase A (a mixture of 10 mM ammonium formate and formic acid at 100:0.2 (v/v)), the supernatant was injected into the LC-MS/MS system.
(§1) To perform correlation analyses between the observed Kp,uu,brain and Kp,uu,CSF, and the model-based prediction of Kp,uu,brain and Kp,uu,CSF, data from literature information were integrated into the internally obtained data for these assessments (Supplemental Table 2) ([17],[22]–[24],[27]–[33]). When only the total concentrations in plasma, CSF, and brain were available, the total concentration ratio in plasma to CSF or brain (Kp,CSF or Kp,brain, respectively) was estimated, followed by calculation of Kp,uu,CSF or Kp,uu,brain based on Eqs.

BCRP = molecular target: T1, BCRP (Homo sapiens, UniProt Q9UNQ0); experiment: in vitro; conditions: dog, pH 7.4
T1 sequence (Q9UNQ0 1-655): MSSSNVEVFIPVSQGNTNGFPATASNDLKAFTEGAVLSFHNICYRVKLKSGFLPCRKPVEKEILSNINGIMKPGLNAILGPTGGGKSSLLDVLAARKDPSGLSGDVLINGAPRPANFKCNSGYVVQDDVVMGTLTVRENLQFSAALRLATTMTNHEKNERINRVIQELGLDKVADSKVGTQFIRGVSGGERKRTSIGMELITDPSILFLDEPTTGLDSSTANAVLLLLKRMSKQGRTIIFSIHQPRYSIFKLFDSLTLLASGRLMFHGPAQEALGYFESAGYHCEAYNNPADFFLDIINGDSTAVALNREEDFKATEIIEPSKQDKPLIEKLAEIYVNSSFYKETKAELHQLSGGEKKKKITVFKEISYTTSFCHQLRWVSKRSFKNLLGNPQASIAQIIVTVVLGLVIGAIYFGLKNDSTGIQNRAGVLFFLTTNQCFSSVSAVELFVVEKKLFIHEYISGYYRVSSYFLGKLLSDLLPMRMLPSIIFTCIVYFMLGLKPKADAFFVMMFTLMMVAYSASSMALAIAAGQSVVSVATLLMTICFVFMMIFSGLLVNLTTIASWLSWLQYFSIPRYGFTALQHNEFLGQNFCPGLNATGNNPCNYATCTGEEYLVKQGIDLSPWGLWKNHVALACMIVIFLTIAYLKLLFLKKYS
Experimental: (§2) To the compounds available internally, in vitro efflux ratios for MDR1 and BCRP were determined by the following procedure (Supplemental Table 2). Test compound stock solutions in dimethyl sulfoxide (DMSO) were diluted in transport buffer (Hanks’ balanced salt solution (HBSS) with 10 mM HEPES, pH 7.4) to a concentration of 1 μM (DMSO < 1%) and applied to the apical or basolateral side of a cell monolayer derived from Madin-Darby canine kidney (MDCK)-MDR1 and MDCK-BCRP cells. Permeation of the test compounds from apical to basolateral (A to B) direction or B to A direction was measured in duplicate. The plate was incubated for 1 h in a CO2 incubator at 37±1°C with 5% CO2 at saturated humidity without shaking. In addition, the efflux ratio of each compound was also determined. Test and reference compounds were quantified by LC-MS/MS analysis based on the peak area ratio of analyte/internal standard.
(§3) The apparent permeability coefficient Papp (cm/s) was calculated by using Eq. 1: 1 Papp=dCr/dt×Vr/A×C0 where dCr/dt is the cumulative concentration of the compound in the receiver chamber as a function of time (μM/s); Vr is the volume of the solution in the receiver chamber (0.075 mL on the apical side, 0.25 mL on the basolateral side); A is the surface area for transport, i.e., 0.0804 cm^2 for the area of the monolayer; and C0 is the initial concentration (μM) in the donor chamber.
(§4) The efflux ratio was calculated using Eq. 2: 2 Efflux ratio=Papp,BtoA/Papp,AtoB

MDR1 = MDR1 (Homo sapiens, UniProt P08183); experiment: in vitro; conditions: dog, MDCK-MDR1, pH 7.4
Sequence of MDR1 (P08183 whole entry): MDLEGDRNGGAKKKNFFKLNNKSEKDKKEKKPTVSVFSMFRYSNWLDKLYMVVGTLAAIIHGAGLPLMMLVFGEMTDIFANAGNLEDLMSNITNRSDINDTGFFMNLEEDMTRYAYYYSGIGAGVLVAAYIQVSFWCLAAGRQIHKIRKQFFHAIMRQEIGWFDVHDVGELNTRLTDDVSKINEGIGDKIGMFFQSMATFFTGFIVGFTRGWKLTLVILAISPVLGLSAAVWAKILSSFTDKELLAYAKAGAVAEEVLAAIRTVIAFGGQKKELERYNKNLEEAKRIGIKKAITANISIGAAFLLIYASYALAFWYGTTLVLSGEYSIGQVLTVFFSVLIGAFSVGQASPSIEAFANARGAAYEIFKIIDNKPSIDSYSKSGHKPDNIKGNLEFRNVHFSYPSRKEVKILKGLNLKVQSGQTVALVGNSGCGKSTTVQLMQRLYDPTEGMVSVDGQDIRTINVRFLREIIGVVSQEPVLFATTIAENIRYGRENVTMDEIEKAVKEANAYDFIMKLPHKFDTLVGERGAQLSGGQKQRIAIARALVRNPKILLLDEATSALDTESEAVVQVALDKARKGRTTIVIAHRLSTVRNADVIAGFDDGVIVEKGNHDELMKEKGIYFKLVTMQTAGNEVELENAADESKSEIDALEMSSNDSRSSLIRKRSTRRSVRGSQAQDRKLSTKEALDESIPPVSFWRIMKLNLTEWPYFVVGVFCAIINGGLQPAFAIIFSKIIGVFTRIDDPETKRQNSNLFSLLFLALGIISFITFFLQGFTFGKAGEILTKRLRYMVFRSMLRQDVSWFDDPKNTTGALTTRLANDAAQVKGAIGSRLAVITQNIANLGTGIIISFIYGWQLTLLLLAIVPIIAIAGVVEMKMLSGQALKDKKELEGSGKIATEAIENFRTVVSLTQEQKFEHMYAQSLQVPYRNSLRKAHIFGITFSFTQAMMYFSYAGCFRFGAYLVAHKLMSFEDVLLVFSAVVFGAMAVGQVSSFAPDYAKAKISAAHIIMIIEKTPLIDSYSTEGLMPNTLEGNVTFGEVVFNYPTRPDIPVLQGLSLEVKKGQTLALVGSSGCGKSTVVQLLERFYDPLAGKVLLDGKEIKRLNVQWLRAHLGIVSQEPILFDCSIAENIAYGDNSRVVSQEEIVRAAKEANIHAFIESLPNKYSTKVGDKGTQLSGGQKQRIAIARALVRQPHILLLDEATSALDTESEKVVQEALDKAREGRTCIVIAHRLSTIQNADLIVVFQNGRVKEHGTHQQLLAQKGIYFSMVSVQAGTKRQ
Experimental: as §2, §3, §4

[2] = cited from earlier work
[3] = cited from earlier work; for Kp,uu,brain Human: *3 ref Summerfield et al. (25)
[4] = cited from earlier work; remark: listed apart in the source
in vivo [5] = conditions: for Kp uu at 6 h: cynomolgus monkey, in vivo
Experimental: Monkey experiments were conducted internally or at the Drug Safety Research Laboratories in Shin Nippon Biomedical Laboratories via consignment to Axcelead Drug Discovery Partners. […] Detailed dosage regimen for each compound is summarized in Supplemental Table 3. […] Each cassette was assigned to a separate group of monkeys. The vehicle was saline or a mixture of dimethylacetamide and 1,3-butanediol (1:1, v/v). At the end of the 6-h infusion or 1 h after intravenous bolus administration, the monkeys were anesthetized, and whole blood, CSF, and whole brain were collected. Blood was collected using the anticoagulant, heparin sodium, and immediately centrifuged; the plasma was transferred to polypropylene tubes. Then, ketamine hydrochloride (50 mg/mL; 0.2 mL/kg; 10 mg/kg) was intramuscularly administered. CSF was collected after lumbar puncture using a spinal needle (22–25G) and a syringe pre-wetted with 10% CHAPS solution to prevent adsorption of compounds to all the equipment during pretreatment. CSF samples were immediately centrifuged, and the supernatant layers were transferred to polypropylene tubes. […] After collecting the cerebellum, hippocampus, and cerebral cortex from the whole brain, these were washed with cold saline, weighed, and homogenized immediately in 4 volumes of ice-cold 100 mmol/L sodium phosphate buffer. All samples were stored at –80°C until analysis by LC-MS/MS. Each sample (50 μL) was mixed with the working solution (the mixture of dimethyl sulfoxide and acetonitrile (2:8, v/v)), and protein was precipitated by the addition of 150 μL acetonitrile containing the internal standards (5 ng/mL alprenolol and diclofenac). After centrifugation at 5,250 rpm and 4°C for 5 min, the supernatant (150 μL) was transferred to a polypropylene 96-well plate (Corning; Corning, NY, USA) and completely evaporated under a gentle stream of N2. The residue was reconstituted in dilution solution (mobile phase A/B (7:3, v/v)), and the supernatant was analyzed by LC-MS/MS.
Each sample (50 μL) was mixed with the working solution (the mixture of dimethyl sulfoxide and acetonitrile (2:8, v/v)), and the protein was precipitated by adding 150 μL acetonitrile containing internal standards (5 ng/mL alprenolol and diclofenac). After centrifugation at 5250 rpm and 4°C for 5 min, the supernatant (150 μL) was transferred to a polypropylene 96-well plate (Corning) and completely evaporated under a gentle stream of N2. The residue was reconstituted in mobile phase A/B (7:3, v/v)), and the supernatant was analyzed by LC-MS/MS. API5000 and QTRAP5500 (AB SCIEX, Framingham, MA, USA) equipped with Ultra-Fast Liquid Chromatography (Shimadzu, Kyoto, Japan) were used for determination of drug concentrations. Reversed-phase chromatography was performed using Shim-pack XR ODS (2.2 μm, 2.0×30 mm). Mobile phase A consisted of 10 mM ammonium formate with 0.2% formic acid, and mobile phase B contained acetonitrile with 0.2% formic acid. […] The mass spectrometer was operated in the positive ionization mode with multiple reaction monitoring (MRM). The MRM parameters (Q1 ion, Q3 ion, DP, EP, CE, and CXP) for monitoring the compounds are shown in Supplemental Table 4. Data acquisition and processing were performed using Analyst 1.6.2 (AB SCIEX, Framingham, MA, USA).
as §1

[6] = monkey, *9 ref Nagaya et al. (19)

Row | Kp uu (in vivo [1]; Kp,uu,CSF Rat) | Kp uu (in vivo [1]; Kp,uu,brain Rat) | efflux ratio at 1 h, 1 μM (BCRP) | efflux ratio at 1 h, 1 μM (MDR1) | SMILES | Kp,uu,brain Rat ([4]; *3 ref Summerfield et al. (25)) | Kp,uu,CSF Rat ([4]; *7 ref Kodaira et al. (20)) | Kp,uu,brain Rat ([4]; *7 ref Kodaira et al. (20)) | Kp,uu,CSF Human ([3]; *4 ref Friden et al. (21)) | Kp,uu,CSF Rat ([4]; *4 ref Friden et al. (21)) | other results
1 | 0.752 | 0.8 | 0.9 | 1.3 | NC(=O)N1c2ccccc2C=Cc2ccccc21 [Carbamazepine] | 0.39 | 0.535 | 0.771 |  |  | Kp,uu,brain Human [3]: 0.55; Kp,uu,CSF Human ([3]; *10 ref Gatti et al. (28)): 1.00; Kp,uu,CSF Monkey [2, 6]: 1.19; Kp,uu,brain Monkey [2, 6]: 1.27
2 |  |  | 0.8 | 1.3 | Nc1ccc(S(=O)(=O)c2ccc(N)cc2)cc1 [Dapsone] |  |  |  |  |  | Kp uu at 6 h (in vivo [5]; Kp,uu,CSF Monkey): 0.661; Kp uu at 6 h (in vivo [5]; Kp,uu,brain Monkey): 1.02; Kp,uu,CSF Human ([3]; *11 ref Togashi et al. (29)): 1.56
3 | 0.409 | 0.061 | 5.8 | 19.8 | C#Cc1cccc(Nc2ncnc3cc(OCCOC)c(OCCOC)cc23)c1 [Erlotinib] |  |  |  |  |  | Kp,uu,CSF Human ([3]; *2 ref Post et al. (24)): 0.428
4 |  |  |  |  | O=c1c(-c2ccc(O)cc2)coc2cc(O)cc(O)c12 [Genistein] |  | 0.589 | 0.181 |  |  | Kp,uu,CSF Monkey (in vivo [5]; monkey, lumbar CSF, *1 data internally obtained): 0.0369; Kp,uu,brain Monkey (in vivo [5]; monkey, *1 data internally obtained): 0.0128; Kp,uu,CSF Rat (in vivo [1]; *1 data internally obtained): 1.29; Kp,uu,brain Rat (in vivo [1]; *1 data internally obtained): 0.0238
5 |  |  | 12 | 3.2 | COc1ccc2c(c1)c(CC(=O)O)c(C)n2C(=O)c1ccc(Cl)cc1 [Indomethacin] |  |  |  | 0.27 | 0.17 | 
6 |  |  |  |  | Nc1nnc(-c2cccc(Cl)c2Cl)c(N)n1 [Lamotrigine] | 1.40 |  |  | 1.1 | 0.86 | Kp,uu,brain Human [3]: 2.80; Kp,uu,CSF Monkey [2, 6]: 0.875; Kp,uu,brain Monkey [2, 6]: 0.678
7 |  |  | 1.2 | 1.4 | CN(Cc1cnc2nc(N)nc(N)c2n1)c1ccc(C(=O)N[C@@H](CCC(=O)O)C(=O)O)cc1 [Methotrexate] |  |  |  | 0.062 | 0.007 | 

Row | SMILES | Kp uu (in vivo [1]; Kp,uu,CSF Rat) | Kp uu (in vivo [1]; Kp,uu,brain Rat) | efflux ratio at 1 h, 1 μM (BCRP) | efflux ratio at 1 h, 1 μM (MDR1) | Kp,uu,brain Rat ([4]; *3 ref Summerfield et al. (25)) | Kp,uu,CSF Rat ([4]; *7 ref Kodaira et al. (20)) | Kp,uu,brain Rat ([4]; *7 ref Kodaira et al. (20)) | Kp,uu,CSF Human ([3]; *4 ref Friden et al. (21)) | Kp,uu,CSF Rat ([4]; *4 ref Friden et al. (21)) | other results
8 | Cc1cc(=O)n(-c2ccccc2)n1C [Antipyrine] | 0.944 | 0.857 | 1 | 0.9 |  |  |  |  |  | Kp,uu,CSF Monkey ([2]; cynomolgus monkey, in vivo): 1.05; Kp,uu,brain Monkey ([2]; cynomolgus monkey, in vivo): 0.857
9 | CN(C)C(=O)C(CCN1CCC(O)(c2ccc(Cl)cc2)CC1)(c1ccccc1)c1ccccc1 [Loperamide] |  |  | 0.97 | 92 | 0.024 | 0.038 | 0.00896 |  | 0.037 | Kp,uu,brain Rat ([4]; *4 ref Friden et al. (21)): 0.007; Kp,uu,brain Monkey ([2]; monkey, *8 ref Uchida et al. (31)): 0.04
